Laboratory results from patent publication US8198273B2, “Compounds and methods for kinase modulation, and indications therefor” (Plexxikon Inc., priority 2009, dated 2012).

Experiments:
CYP2D6 = CYP2D6 (Homo sapiens, UniProt P10635); assay: CYP2D6 inhibition (fluorescent substrate); type: in vitro ADME; settings: CYP2D6, AMMC substrate; read-out: Cyp IC50 2D6
Description: (§1) CYP (Cytochrome P450) enzymes are the major drug metabolizing enzymes present in the liver. The inhibition of CYP enzyme activity (IC50) for each of CYP1A2, CYP2C19, CYP2C9, CYP2D6, CYP3A4(BFC) and CYP3A4(BQ) is determined for compounds, where inhibition of metabolism of a known substrate leads to a decrease in the fluorescence of the metabolized product. The fluorescence of the product is monitored as a function of compound concentration.
(§2) Compounds are dissolved in dimethyl sulfoxide to a concentration of 100 mM. These are diluted 1 μL into 82 μL of acetonitrile. […] These are then serially diluted 1:1 (160 μL to 160 μL co-factor mix) for a total of 10 points. A 10 μL aliquot of this final mixture is dispensed into 384 well assay plates and incubated for 10 minutes at 37° C. […] Assay plates are incubated at 37° C. […] The signal versus compound concentration is used to determine the IC50. The enzymes and substrates for this assay are obtained from BD Biosciences.

B-Raf V600E = B-Raf V600E (Homo sapiens, UniProt P15056, V600E); assay: B-Raf V600E biochemical kinase inhibition (AlphaScreen, biotin-MEK1 substrate); settings: 100 μM ATP
B-Raf V600E, sequence (P15056 whole entry V600E): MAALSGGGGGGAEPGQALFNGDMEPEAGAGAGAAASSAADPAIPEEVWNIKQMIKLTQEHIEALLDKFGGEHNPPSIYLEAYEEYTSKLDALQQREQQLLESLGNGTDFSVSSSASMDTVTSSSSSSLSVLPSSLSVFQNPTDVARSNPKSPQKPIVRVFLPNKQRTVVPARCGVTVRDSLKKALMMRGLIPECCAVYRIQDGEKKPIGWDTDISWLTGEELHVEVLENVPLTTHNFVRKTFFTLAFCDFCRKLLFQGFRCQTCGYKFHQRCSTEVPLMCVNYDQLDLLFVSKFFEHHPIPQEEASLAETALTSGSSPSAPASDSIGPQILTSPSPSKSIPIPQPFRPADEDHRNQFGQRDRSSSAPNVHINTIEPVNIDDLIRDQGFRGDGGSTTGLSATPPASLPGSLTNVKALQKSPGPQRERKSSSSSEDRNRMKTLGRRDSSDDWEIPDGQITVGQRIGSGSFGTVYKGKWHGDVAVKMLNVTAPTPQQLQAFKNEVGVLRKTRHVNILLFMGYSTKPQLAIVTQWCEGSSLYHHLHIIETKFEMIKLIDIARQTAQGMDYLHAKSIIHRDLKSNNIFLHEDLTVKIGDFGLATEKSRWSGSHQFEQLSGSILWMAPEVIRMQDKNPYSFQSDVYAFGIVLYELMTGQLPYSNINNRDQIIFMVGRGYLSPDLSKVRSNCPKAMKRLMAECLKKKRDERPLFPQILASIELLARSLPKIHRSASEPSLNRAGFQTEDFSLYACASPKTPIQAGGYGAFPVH
In short: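 Serial 1:3 dilutions of compound (0.1 mM DMSO stock, eight points) were added first, then ATP to start the reaction at 100 μM final.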

CYP2C19 = CYP2C19 (Homo sapiens, UniProt P33261); assay: CYP2C19 inhibition (fluorescent substrate); type: in vitro ADME; settings: CYP2C19, CEC substrate; read-out: Cyp IC50 2C19
CYP2C19, sequence (P33261 whole entry): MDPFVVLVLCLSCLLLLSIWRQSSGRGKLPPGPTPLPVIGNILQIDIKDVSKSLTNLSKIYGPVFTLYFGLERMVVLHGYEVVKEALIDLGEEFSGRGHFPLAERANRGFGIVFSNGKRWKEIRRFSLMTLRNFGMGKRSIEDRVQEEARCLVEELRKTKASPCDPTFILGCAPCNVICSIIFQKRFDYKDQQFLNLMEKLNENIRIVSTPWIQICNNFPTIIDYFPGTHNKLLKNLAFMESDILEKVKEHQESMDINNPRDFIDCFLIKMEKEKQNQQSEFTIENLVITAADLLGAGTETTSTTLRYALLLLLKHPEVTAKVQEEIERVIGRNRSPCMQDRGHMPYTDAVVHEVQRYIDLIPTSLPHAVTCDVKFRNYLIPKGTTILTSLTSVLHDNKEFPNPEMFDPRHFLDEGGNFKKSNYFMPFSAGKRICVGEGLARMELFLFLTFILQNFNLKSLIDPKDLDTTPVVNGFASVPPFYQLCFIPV
Description: as §1, §2

[1] = Relative solubility by turbidity in aqueous buffers of varying pH; type: physicochemical; settings: for turbidity threshold (L, M, H) 7.4: HEPES pH 7.4; for turbidity threshold (L, M, H) 4.5: SIF pH 4.5; for turbidity threshold (L, M, H) 6.8: SIF pH 6.8; for turbidity threshold (L, M, H) 1.4: buffer pH 1.4 (SGF)
In short: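 Turbidity endpoint: concentration where optical density at 490, 535 and 650 nm exceeds 0.01, three-wavelength average used. Buffers at pH 1.5, 4.5, 6.8 and 7.4; DMSO serial dilutions of 25 mM stock spiked 1 μL into 99 μL buffer. Low <31.3, moderate 31.3–250, high >250 μM.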

CYP2D6, sequence (P10635 whole entry): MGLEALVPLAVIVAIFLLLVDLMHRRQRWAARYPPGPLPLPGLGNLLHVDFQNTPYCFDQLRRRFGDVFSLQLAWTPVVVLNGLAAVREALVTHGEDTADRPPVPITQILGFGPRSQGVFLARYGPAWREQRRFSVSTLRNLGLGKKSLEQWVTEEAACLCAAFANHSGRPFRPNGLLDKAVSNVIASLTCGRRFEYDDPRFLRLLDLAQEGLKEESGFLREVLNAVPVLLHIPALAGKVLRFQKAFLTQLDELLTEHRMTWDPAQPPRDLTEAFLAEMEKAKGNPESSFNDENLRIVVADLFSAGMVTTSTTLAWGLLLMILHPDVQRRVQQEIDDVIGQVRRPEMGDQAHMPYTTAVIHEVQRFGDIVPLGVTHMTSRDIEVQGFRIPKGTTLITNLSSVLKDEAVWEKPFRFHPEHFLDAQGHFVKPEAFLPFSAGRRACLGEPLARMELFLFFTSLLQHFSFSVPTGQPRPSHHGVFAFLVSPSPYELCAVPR

| Compound | IC50 (CYP2D6) | IC50 (B-Raf V600E) | IC50 (CYP2C19) | turbidity threshold (L, M, H) 7.4 [1] | turbidity threshold (L, M, H) 4.5 [1] | turbidity threshold (L, M, H) 6.8 [1] | turbidity threshold (L, M, H) 1.4 [1] |
| --- | --- | --- | --- | --- | --- | --- | --- |
| CCCS(=O)(=O)Nc1ccc(F)c(C(=O)c2c[nH]c3ncc(-c4cncc(S(C)(=O)=O)c4)cc23)c1F [P-2188, Propane-1-sulfonic acid {2,4-difluoro-3-[5-(5-methanesulfonyl-pyridin-3-yl)-1H-pyrrolo[2,3-b]pyridine-3-carbonyl]-phenyl}-amide] | > 10 µM | < 0.01 µM | > 10 µM | M (moderate solubility if the threshold concentration is 31.3 μM to 250 μM) | L (low solubility if the threshold concentration is <31.3 04) | L (low solubility if the threshold concentration is <31.3 04) | M (moderate solubility if the threshold concentration is 31.3 μM to 250 μM) |
| O=C(c1c(F)ccc(NS(=O)(=O)c2ccccc2F)c1F)c1c[nH]c2nccc(Cl)c12 [P-2017, N-[3-(4-Chloro-1H-pyrrolo[2,3-b]pyridine-3-carbonyl)-2,4-difluoro-phenyl]-2-fluoro-benzenesulfonamide] | > 10 µM | < 0.01 µM | > 10 µM | M (moderate solubility if the threshold concentration is 31.3 μM to 250 μM) | M (moderate solubility if the threshold concentration is 31.3 μM to 250 μM) | M (moderate solubility if the threshold concentration is 31.3 μM to 250 μM) | M (moderate solubility if the threshold concentration is 31.3 μM to 250 μM) |
| CCCS(=O)(=O)Nc1ccc(F)c(C(=O)c2c[nH]c3ncc(-c4cnn(Cc5ccccc5)c4)cc23)c1F [P-2190, Propane-1-sulfonic acid {3-[5-(1-benzyl-1H-pyrazol-4-yl)-1H-pyrrolo[2,3-b]pyridine-3-carbonyl]-2,4-difluoro-phenyl}-amide] | > 10 µM | < 0.01 µM | 5 to 10 µM | L (low solubility if the threshold concentration is <31.3 04) | L (low solubility if the threshold concentration is <31.3 04) | L (low solubility if the threshold concentration is <31.3 04) | L (low solubility if the threshold concentration is <31.3 04) |
| CCCS(=O)(=O)Nc1ccc(F)c(C(=O)c2c[nH]c3ncc(-c4ccc(C(=O)NC)nc4)cc23)c1F [P-2180, 5-{3-[2,6-Difluoro-3-(propane-1-sulfonylamino)-benzoyl]-1H-pyrrolo[2,3-b]pyridin-5-yl}-pyridine-2-carboxylic acid methylamide] | > 10 µM | < 0.01 µM | 5 to 10 µM | L (low solubility if the threshold concentration is <31.3 04) | L (low solubility if the threshold concentration is <31.3 04) | L (low solubility if the threshold concentration is <31.3 04) | L (low solubility if the threshold concentration is <31.3 04) |
| Cc1cnc2[nH]cc(C(=O)c3c(F)ccc(NS(=O)(=O)c4cccc(F)c4)c3F)c2c1 [P-2016, N-[2,4-Difluoro-3-(5-methyl-1H-pyrrolo[2,3-b]pyridine-3-carbonyl)-phenyl]-3-fluoro-benzenesulfonamide] | > 10 µM | < 0.01 µM | > 10 µM | M (moderate solubility if the threshold concentration is 31.3 μM to 250 μM) | L (low solubility if the threshold concentration is <31.3 04) | M (moderate solubility if the threshold concentration is 31.3 μM to 250 μM) | H (high solubility if the threshold concentration is >250 μM) |

Continued, in another order:

| IC50 (CYP2D6) | IC50 (B-Raf V600E) | IC50 (CYP2C19) | Compound | turbidity threshold (L, M, H) 7.4 [1] | turbidity threshold (L, M, H) 4.5 [1] | turbidity threshold (L, M, H) 6.8 [1] | turbidity threshold (L, M, H) 1.4 [1] |
| --- | --- | --- | --- | --- | --- | --- | --- |
| > 10 µM | < 0.01 µM | > 10 µM | COc1cnc2[nH]cc(C(=O)c3c(F)ccc(NS(=O)(=O)c4ccccc4F)c3F)c2c1 [P-2009, N-[2,4-Difluoro-3-(5-methoxy-1H-pyrrolo[2,3-b]pyridine-3-carbonyl)-phenyl]-2-fluoro-benzenesulfonamide] | M (moderate solubility if the threshold concentration is 31.3 μM to 250 μM) | L (low solubility if the threshold concentration is <31.3 04) | L (low solubility if the threshold concentration is <31.3 04) | L (low solubility if the threshold concentration is <31.3 04) |
| > 10 µM | < 0.01 µM | 5 to 10 µM | CCCS(=O)(=O)Nc1ccc(F)c(C(=O)c2c[nH]c3ncc(-c4cnn(CCN5CCOCC5)c4)cc23)c1F [P-2177, Propane-1-sulfonic acid (2,4-difluoro-3-{5-[1-(2-morpholin-4-yl-ethyl)-1H-pyrazol-4-yl]-1H-pyrrolo[2,3-b]pyridine-3-carbonyl}-phenyl)-amide] | L (low solubility if the threshold concentration is <31.3 04) | M (moderate solubility if the threshold concentration is 31.3 μM to 250 μM) | L (low solubility if the threshold concentration is <31.3 04) | H (high solubility if the threshold concentration is >250 μM) |
| > 10 µM | < 0.01 µM | > 10 µM | O=C(c1c(F)ccc(NS(=O)(=O)c2cccc(F)c2)c1F)c1c[nH]c2nccc(Cl)c12 [P-2019, N-[3-(4-Chloro-1H-pyrrolo[2,3-b]pyridine-3-carbonyl)-2,4-difluoro-phenyl]-3-fluoro-benzenesulfonamide] | M (moderate solubility if the threshold concentration is 31.3 μM to 250 μM) | M (moderate solubility if the threshold concentration is 31.3 μM to 250 μM) | M (moderate solubility if the threshold concentration is 31.3 μM to 250 μM) | L (low solubility if the threshold concentration is <31.3 04) |
| > 10 µM | < 0.01 µM | > 10 µM | CCCS(=O)(=O)Nc1ccc(F)c(C(=O)c2c[nH]c3ncc(-c4ccc(C(=O)NC5CC5)nc4)cc23)c1F [P-2181, 5-{3-[2,6-Difluoro-3-(propane-1-sulfonylamino)-benzoyl]-1H-pyrrolo[2,3-b]pyridin-5-yl}-pyridine-2-carboxylic acid cyclopropylamide] | L (low solubility if the threshold concentration is <31.3 04) | L (low solubility if the threshold concentration is <31.3 04) | L (low solubility if the threshold concentration is <31.3 04) | L (low solubility if the threshold concentration is <31.3 04) |
| > 10 µM | < 0.01 µM | > 10 µM | CCCS(=O)(=O)Nc1ccc(F)c(C(=O)c2c[nH]c3ncc(-c4ccnc(F)c4)cc23)c1F [P-2192, Propane-1-sulfonic acid {2,4-difluoro-3-[5-(2-fluoro-pyridin-4-yl)-1H-pyrrolo[2,3-b]pyridine-3-carbonyl]-phenyl}-amide] | L (low solubility if the threshold concentration is <31.3 04) | L (low solubility if the threshold concentration is <31.3 04) | L (low solubility if the threshold concentration is <31.3 04) | L (low solubility if the threshold concentration is <31.3 04) |
